One molecule from patent US12716889B2, “Microfluidic-based device for in vivo wound infection model and uses thereof” (The Hong Kong Polytechnic University, priority 2021, dated 2026) can be followed below.

The experiment relates to P. aeruginosa (PAO1) biofilm. Nature of the experiment: Viable cell counts (CFU) from biofilm on infected tail wound of Medaka fish in the MicroFish device. Particulars: ciprofloxacin monotherapy at 0, 0.05, 1, 5, 10 μg ml^−1 added to fish-microbe co-cultures; FIG. 5E. It is filed as in vivo, Pseudomonas aeruginosa. The method, then: After harvesting the tails from euthanized animals after bacterial infection, the tissues were resuspended in 100 μl sterilized 0.9% (w/v) NaCl saline and ground manually by pellet pestle in 1.5-ml-microcentrifuge tubes (JET BIOFIL, China) until homogenization. The homogenized samples were diluted serially in 0.9% NaCl and then spread on centrimide agar (selective only for Pseudomonad growth) (Sigma-Aldrich, Germany). After incubation at 37° C. for 16 hrs, the colonies grown on the plates were enumerated. The CFU ml^−1 was tabulated by colony number×dilution factor[…]. Experiments were performed in triplicates, and the results are shown as mean±S.D.

As to `O=C(O)c1cn(C2CC2)c2cc(N3CCNCC3)c(F)cc2c1=O` [ciprofloxacin], the “biofilm viability (viable cell counts, CFU)” value is “lower biofilm viability”.
